Laboratory results from ChEMBL document CHEMBL1201862, “PubChem BioAssay data set” (2004).
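Cultured in 96-well plates, cells were exposed to test compound for 48 hours across five concentrations. Abbreviation: GI50, concentration required for 50% inhibition of growth.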 Active and inactive are the calls of the source. No stated cut-off is given here; in the data, active = GI50 up to about 1.1 µM and inactive = higher.

How the values were obtained:
Assay in all cases: growth of human tumour cells (NCI), 48 h
[1] = test system: HCC 2998
[2] = test system: HCT-116
[3] = test system: HT-29
[4] = test system: KM12
[5] = test system: Malme-3M
[6] = test system: OVCAR-5
[7] = test system: OVCAR-8
[8] = test system: SF-268
[9] = test system: SF-295
[10] = test system: SF-539
[11] = test system: SK-MEL-2
[12] = test system: SK-MEL-5
[13] = test system: SK-OV-3
[14] = test system: SN12C
[15] = test system: SNB-75
[16] = test system: U-251
[17] = test system: UACC-257
[18] = test system: UACC-62
[19] = test system: UO-31
[20] = test system: EKVX

Row | Compound | GI50 [1] | GI50 [2] | GI50 [3] | GI50 [4] | GI50 [5] | GI50 [6] | GI50 [7] | GI50 [8] | GI50 [9] | GI50 [10] | GI50 [11] | GI50 [12] | GI50 [13] | GI50 [14] | GI50 [15] | GI50 [16] | GI50 [17] | GI50 [18] | GI50 [19] | GI50 [20]
1 | C=C1C[C@@H](O)C[C@@]2(C)C[C@@H]3OC(=O)C(=C)[C@@H]3C[C@H]12 | 3.82 µM (inactive) | 3.43 µM (inactive) | 2.94 µM (inactive) | 6.62 µM (inactive) | 3.37 µM (inactive) | 7.36 µM (inactive) | 16 µM (inactive) | 5.46 µM (inactive) | 15.3 µM (inactive) | 9.68 µM (inactive) | 11.9 µM (inactive) | 3.51 µM (inactive) | 20.7 µM (inactive) | 5.57 µM (inactive) | 8.47 µM (inactive) | 12.2 µM (inactive) | 4.43 µM (inactive) | 5.96 µM (inactive) | 4.85 µM (inactive) | 
2 | CC[C@H]1CN2CCc3cc(OC)c(OC)cc3[C@@H]2C[C@@H]1C[C@H]1NCCc2cc(O)c(OC)cc21 | 0.0261 µM (active) | 0.025 µM (active) | 0.0319 µM (active) | 0.0296 µM (active) | 0.0809 µM (active) | 0.25 µM (active) | 0.025 µM (active) | 0.0557 µM (active) | 0.0326 µM (active) | 0.0308 µM (active) | 0.0319 µM (active) | 0.0592 µM (active) | 0.0562 µM (active) | 0.0361 µM (active) |  | 0.0333 µM (active) | 0.0731 µM (active) | 0.0478 µM (active) | 0.146 µM (active) | 0.025 µM (active)
3 | COC(=O)C(=O)OC1(C(C)=O)CC2(c3ccccc3)OC1(c1ccccc1)c1ccccc12 (stereo not given) | 16.7 µM (inactive) | 16.2 µM (inactive) | 17 µM (inactive) |  | 19.1 µM (inactive) | 26.1 µM (inactive) | 15.9 µM (inactive) | 20 µM (inactive) | 14.5 µM (inactive) | 13 µM (inactive) |  | 15 µM (inactive) | 29.9 µM (inactive) | 15 µM (inactive) | 32.7 µM (inactive) | 16.4 µM (inactive) | 16.2 µM (inactive) | 14.9 µM (inactive) | 14.2 µM (inactive) | 20.7 µM (inactive)
4 | Cc1ccc(C(=O)Cc2nc3c([nH]c2=O)c(C)nn3-c2ccccc2)c(C)c1 | > 10 µM (inactive) | 4.69 µM (inactive) | > 10 µM (inactive) | > 10 µM (inactive) | > 10 µM (inactive) |  | 8.22 µM (inactive) | > 10 µM (inactive) | > 10 µM (inactive) | > 10 µM (inactive) |  | > 10 µM (inactive) | > 10 µM (inactive) | > 10 µM (inactive) | 1.01 µM (active) | > 10 µM (inactive) | > 10 µM (inactive) | > 10 µM (inactive) |  | 
5 | COc1ccc(C(=O)Nc2ccc(O)c(=O)cc2)cc1 | 39.9 µM (inactive) | 33.1 µM (inactive) | 20.8 µM (inactive) | 39.4 µM (inactive) | 43.9 µM (inactive) | > 100 µM (inactive) | 30.6 µM (inactive) | 21 µM (inactive) | 37.8 µM (inactive) | 33.2 µM (inactive) | 50.1 µM (inactive) | 41.6 µM (inactive) |  | 36.5 µM (inactive) |  | 38.7 µM (inactive) | 40.6 µM (inactive) | 32.5 µM (inactive) | 20.9 µM (inactive) | 21.4 µM (inactive)
6 | COc1c2c(cc3c(CCc4ccccc4)cc(=O)oc13)CCC(C)(C)O2 | > 100 µM (inactive) | > 100 µM (inactive) | > 100 µM (inactive) | > 100 µM (inactive) | > 100 µM (inactive) | > 100 µM (inactive) | > 100 µM (inactive) | > 100 µM (inactive) | > 100 µM (inactive) |  | > 100 µM (inactive) | > 100 µM (inactive) | > 100 µM (inactive) | > 100 µM (inactive) | > 100 µM (inactive) | > 100 µM (inactive) | > 100 µM (inactive) | > 100 µM (inactive) | > 100 µM (inactive) | > 100 µM (inactive)
7 | C=CCc1cccc2cc(C(=O)Nc3ccc(C)cc3)c(=N)oc12 | > 100 µM (inactive) | > 100 µM (inactive) | > 100 µM (inactive) | > 100 µM (inactive) | > 100 µM (inactive) | > 100 µM (inactive) | > 100 µM (inactive) | > 100 µM (inactive) |  |  | 45.2 µM (inactive) | > 100 µM (inactive) | > 100 µM (inactive) | > 100 µM (inactive) | > 100 µM (inactive) | > 100 µM (inactive) | > 100 µM (inactive) | > 100 µM (inactive) |  | > 100 µM (inactive)
8 | O=C(CC/C=C(/CS(=O)(=O)c1ccccc1)S(=O)(=O)c1ccccc1)c1ccccc1 | > 100 µM (inactive) | > 100 µM (inactive) | 75 µM (inactive) | > 100 µM (inactive) | > 10 µM (inactive) | > 100 µM (inactive) | > 100 µM (inactive) |  | > 100 µM (inactive) | > 100 µM (inactive) | 50.8 µM (inactive) | > 100 µM (inactive) | 44 µM (inactive) | > 100 µM (inactive) | 25.6 µM (inactive) | 72.3 µM (inactive) | > 100 µM (inactive) | 22.2 µM (inactive) | > 100 µM (inactive) | > 100 µM (inactive)
9 | O=C1C2C3C=C4c5ccccc5N(c5ccccc5)C4(C2C(=O)N1Cc1ccccc1)C1C(=O)N(Cc2ccccc2)C(=O)C31 (stereo not given) | > 100 µM (inactive) | > 100 µM (inactive) | > 100 µM (inactive) | > 100 µM (inactive) | > 100 µM (inactive) | > 100 µM (inactive) | 39.4 µM (inactive) | > 100 µM (inactive) | 64 µM (inactive) | > 100 µM (inactive) | > 100 µM (inactive) |  |  | > 100 µM (inactive) | 16.1 µM (inactive) | > 100 µM (inactive) | > 100 µM (inactive) |  | > 100 µM (inactive) | 
10 | O=S1(=O)CC#CC[C@@H](CO)[C@@H](CO)CC#CC1 | > 100 µM (inactive) | 61.2 µM (inactive) | > 100 µM (inactive) | > 100 µM (inactive) | 21.7 µM (inactive) | > 100 µM (inactive) | > 100 µM (inactive) |  | > 100 µM (inactive) | > 100 µM (inactive) | > 100 µM (inactive) | > 100 µM (inactive) | > 100 µM (inactive) | > 100 µM (inactive) | 82 µM (inactive) | > 100 µM (inactive) | 91.6 µM (inactive) | > 100 µM (inactive) | > 100 µM (inactive) | > 100 µM (inactive)
11 | CCN(CC)CCCNc1nc(=O)[nH]c(C)c1C(=O)Nc1ccc2c(c1)c1ccccc1n2CC | > 100 µM (inactive) | > 100 µM (inactive) | > 100 µM (inactive) | > 100 µM (inactive) | > 100 µM (inactive) | > 100 µM (inactive) | > 100 µM (inactive) |  | > 100 µM (inactive) | > 100 µM (inactive) | > 100 µM (inactive) | > 100 µM (inactive) | > 100 µM (inactive) | > 100 µM (inactive) | > 100 µM (inactive) | > 100 µM (inactive) | > 100 µM (inactive) | > 100 µM (inactive) | > 100 µM (inactive) | > 100 µM (inactive)
12 | CN(C)c1nc(N(C)C)nc(N(C)C23CC4CC(CC(C4)C2)C3)n1 | 39.6 µM (inactive) | 20.5 µM (inactive) |  | 44.5 µM (inactive) | 33 µM (inactive) | 21.4 µM (inactive) | 32.1 µM (inactive) | 39.5 µM (inactive) | 18.4 µM (inactive) | 31.8 µM (inactive) | 25.1 µM (inactive) |  | 17.9 µM (inactive) |  | 24.3 µM (inactive) | 30.1 µM (inactive) | 34.3 µM (inactive) | 56.8 µM (inactive) | 61.1 µM (inactive) | 32 µM (inactive)
13 | O=C(CC(=O)C(F)(F)F)c1csc2ccccc12 | 48.9 µM (inactive) | 34 µM (inactive) |  | 38.9 µM (inactive) | 26.4 µM (inactive) | 53 µM (inactive) | 18.5 µM (inactive) | 30.8 µM (inactive) | 10.4 µM (inactive) | 31.6 µM (inactive) | 22 µM (inactive) | 26.9 µM (inactive) | 18 µM (inactive) | 25 µM (inactive) |  | 34.7 µM (inactive) | 32.9 µM (inactive) | 32.2 µM (inactive) | 27.9 µM (inactive) | 33.4 µM (inactive)
14 | O=C(O)C(F)(F)C(F)(F)C(F)(F)C(F)(F)C(F)(F)C(F)(F)C(F)(F)C(F)(F)F | 86.9 µM (inactive) | 41 µM (inactive) | 48.2 µM (inactive) | 53.1 µM (inactive) | > 100 µM (inactive) | 33.3 µM (inactive) | 43.9 µM (inactive) | 54.7 µM (inactive) | 31 µM (inactive) | 43.2 µM (inactive) |  | 80 µM (inactive) | 29.6 µM (inactive) | 50.5 µM (inactive) | 71.8 µM (inactive) | 26.4 µM (inactive) | > 100 µM (inactive) | > 100 µM (inactive) | 47.5 µM (inactive) | 48 µM (inactive)
15 | CC=C/C=C/[C@@H]1O[C@](O)([C@H](CC)C(=O)NC/C=C/C=C(\C)[C@@H](OC)[C@@H](C)[C@@H]2O[C@H](/C=C/C=C/C=C(\C)C(=O)c3c(O)cc[nH]c3=O)[C@H](O)[C@@H]2O)[C@H](O)[C@H](O)C1(C)C | > 100 µM (inactive) |  | > 100 µM (inactive) | 72.6 µM (inactive) | 94.2 µM (inactive) | > 100 µM (inactive) | 72.3 µM (inactive) | > 100 µM (inactive) | 69.7 µM (inactive) | > 100 µM (inactive) | > 100 µM (inactive) |  | > 100 µM (inactive) |  | > 100 µM (inactive) | > 100 µM (inactive) | > 100 µM (inactive) | > 100 µM (inactive) | > 100 µM (inactive) | > 100 µM (inactive)
